Measurements published in the supplement of paper PMC7108870.

Tests used:
HEK293sieSTAT3(wt) [1] = test: drug sensitivity score (DSS), viability CellTiter-Glo (DSS (dimensionless)); higher = more growth inhibition; extreme values may be limits of the assay; conditions: 72 h; STAT3 variant: wild type
Procedure, shortened: (§1)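 HEK293 cells bearing a STAT3-dependent luciferase reporter and overexpressing wild-type or mutant STAT3 were incubated with compounds at 5 concentrations in 10-fold steps for 72 hours at 37°C and 5% CO2. CellTox Green fluorescence and then CellTiter-Glo luminescence were measured, and values were normalised to negative and positive control wells. In Breeze, a drug sensitivity score was computed from the dose-response curve area.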

HEK293sieSTAT3(Y640F) [2] = test: as above; conditions: 72 h; STAT3 variant: Y640F (constitutively active)
Procedure, shortened: as §1

HEK293sieSTAT3(wt) [3] = test: drug sensitivity score (DSS), cytotoxicity CellTox Green (DSS (dimensionless)); higher = more cytotoxic; extreme values may be limits of the assay; conditions: 72 h; STAT3 variant: wild type
Procedure, shortened: as §1

HEK293sieSTAT3(Y640F) [4] = test: as above; conditions: 72 h; STAT3 variant: Y640F (constitutively active)
Procedure, shortened: as §1

Row | Compound | drug sensitivity score (HEK293sieSTAT3(wt) [1]) | drug sensitivity score (HEK293sieSTAT3(Y640F) [2]) | drug sensitivity score (HEK293sieSTAT3(wt) [3]) | drug sensitivity score (HEK293sieSTAT3(Y640F) [4])
1 | O=C(O)CCCc1ccc(N(CCCl)CCCl)cc1 [Chlorambucil] (top concentration tested 10000 nM) | 0.99 | 1.45 | 0 | 0
2 | CCN(CC)CCCC(C)Nc1ccnc2cc(Cl)ccc12 (centres undefined) [Chloroquine] (top concentration tested 100000 nM) | 13 | 11 | 15.8 | 8.17
3 | CC(C)[C@H]1C(=O)N[C@@H](CCCNC(=N)N)C(=O)NCC(=O)N[C@@H](CC(=O)O)C(=O)N[C@H](Cc2ccccc2)C(=O)N1C [Cilengitide] (top concentration tested 10000 nM) | 0 | 0 | 0 | 0
4 | N.N.[Cl][Pt][Cl] [Cisplatin] (top concentration tested 100000 nM) | 18.9 | 19.6 | 6.89 | 5.83
5 | Nc1nc(Cl)nc2c1ncn2[C@H]1C[C@H](O)[C@@H](CO)O1 [Cladribine] (top concentration tested 1000 nM) | 6.32 | 1.45 | 0.33 | 0
6 | Nc1nc(Cl)nc2c1ncn2[C@@H]1O[C@H](CO)[C@@H](O)[C@@H]1F [Clofarabine] (top concentration tested 10000 nM) | 20.3 | 18.6 | 7.13 | 3.51
7 | CCN(CC)CCOc1ccc(C(=C(Cl)c2ccccc2)c2ccccc2)cc1 [Clomifene] (top concentration tested 10000 nM) | 7.15 | 5.14 | 7.9 | 6.99
8 | O=C(c1ccc(F)c(F)c1Nc1ccc(I)cc1F)N1CC(O)([C@@H]2CCCCN2)C1 [Cobimetinib] (top concentration tested 1000 nM) | 3.78 | 3.13 | 0 | 0
9 | COc1c(OCCCN2CCOCC2)ccc2c1N=C(NC(=O)c1cnc(N)nc1)N1CCN=C21 [Copanlisib] (top concentration tested 1000 nM) | 18.3 | 15.5 | 0.34 | 0
10 | CC1(COc2ccc3c(c2)ncn3-c2ccc3cccc(N4CCC(N)CC4)c3n2)COC1 [Crenolanib] (top concentration tested 10000 nM) | 11.9 | 9.27 | 11 | 8.74
11 | C[C@@H](Oc1cc(-c2cnn(C3CCNCC3)c2)cnc1N)c1c(Cl)ccc(F)c1Cl [Crizotinib] (top concentration tested 1000 nM) | 1.97 | 1.05 | 5.34 | 0.46
12 | O=P1(N(CCCl)CCCl)NCCCO1 (centres undefined) [Cyclophosphamide] (top concentration tested 40000 nM) | 0 | 0 | 0 | 0
13 | Nc1ccn([C@@H]2O[C@H](CO)[C@@H](O)[C@@H]2O)c(=O)n1 [Cytarabine] (top concentration tested 10000 nM) | 13.3 | 8.82 | 1.75 | 0.18
14 | CC(C)(C)c1nc(-c2cccc(NS(=O)(=O)c3c(F)cccc3F)c2F)c(-c2ccnc(N)n2)s1 [Dabrafenib] (top concentration tested 2500 nM) | 0 | 0 | 0 | 0
15 | CN(C)/N=N/c1[nH]cnc1C(N)=O [Dacarbazine] (top concentration tested 10000 nM) | 2.09 | 0.02 | 0 | 0
16 | COc1cc2ncnc(Nc3ccc(F)c(Cl)c3)c2cc1NC(=O)/C=C/CN1CCCCC1 [Dacomitinib] (top concentration tested 1000 nM) | 5.47 | 1.76 | 0 | 0
